These results are taken from ChEMBL document CHEMBL1201862, “PubChem BioAssay data set” (2004).

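Where inhibition never reached the appropriate level, the endpoint shown equals the highest concentration tested. Otherwise, values were interpolated linearly from a five-concentration, 48-hour dose response in 96-well plates. Here, GI50 denotes the concentration required for 50% inhibition of growth.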 The source made the active and inactive calls. No stated cut-off is given here; in the data, active = GI50 up to about 1.1 µM and inactive = higher.

Test systems include DLD-1; LXFL 529; HOP-18; RXF 631; M19-MEL; XF498; DMS-114; SNB-78; DMS-273.
Assay in all cases: DTP human tumour cell line panel, 48 h

Regarding `O=C1C(c2ccc(Cl)cc2)=[N+]([O-])c2ccccc21`, the GI50 in the assay with DLD-1 is 13.8 µM (inactive); in the assay with LXFL 529 it was 5.36 µM (inactive); in the assay on HOP-18 it was 21.8 µM (inactive); with RXF 631 it was 23.6 µM (inactive); with M19-MEL it was > 100 µM (inactive); with XF498, 20.4 µM (inactive). Besides, the GI50 in the assay with DMS-114 is 4.07 µM (inactive).

Consider `C[C@@H]1C[C@@H](O)[C@]2(O)O[C@@H]3C[C@@]4(C=O)[C@@H](CC[C@@H]5[C@@H]4CC[C@]4(C)[C@@H](C6=CC(=O)OC6)CC[C@]54O)C[C@H]3O[C@@H]2O1` [CALACTIN], for which the GI50 with DLD-1 was 0.012 µM (active); in the assay with SNB-78, 0.0106 µM (active); in the assay on LXFL 529, 0.00501 µM (active); with HOP-18, 0.0042 µM (active); with DMS-273, 0.00455 µM (active); in the assay on M19-MEL it was 0.0206 µM (active). Moreover, the figures for the concentration for 50% growth inhibition (GI50) with XF498 and with DMS-114 were 0.0159 µM (active) and 0.00141 µM (active), respectively.

`O=C(c1ccccc1)c1ccc(OCCOc2ccc(Nc3ccccc3)cc2)cc1`: the GI50 in the assay with DLD-1 was 50.9 µM (inactive); in the assay with SNB-78, 35.2 µM (inactive); with LXFL 529, 41.1 µM (inactive); in the assay with HOP-18 it was 65.5 µM (inactive); with DMS-273, > 100 µM (inactive); with RXF 631, 17.7 µM (inactive). For the same molecule, the GI50 is 70.3 µM (inactive) with M19-MEL, 16.1 µM (inactive) in the assay on XF498 and 6.84 µM (inactive) in the assay on DMS-114.

`O=[N+]([O-])c1ccc(-c2ccc(C3=Nn4c(nnc4-c4ccc(Cl)cc4)SC3)o2)cc1`: the GI50 with DLD-1 is > 91.4 µM (inactive); in the assay on LXFL 529, > 100 µM (inactive); in the assay on HOP-18, > 100 µM (inactive); with DMS-273, 67.9 µM (inactive); with RXF 631 it was > 53.3 µM (inactive); with M19-MEL, > 100 µM (inactive). For the same molecule, the GI50 in the assay on XF498 is 24.9 µM (inactive); with DMS-114 it was > 100 µM (inactive).

On to `Cc1ccc(/C=C/C(=O)c2sc(-c3nc(C)c(C(=O)/C=C/c4ccc(C)cc4)s3)nc2C)cc1`, for which the GI50 with DLD-1, with SNB-78, in the assay with HOP-18, in the assay with DMS-273, with RXF 631 and in the assay with M19-MEL was > 100 µM (inactive) each time. Also, in the assay on DMS-114, the GI50 was > 100 µM (inactive).

As to `C=C1CCC2(C(C)=O)COC1(C)O2` (centres undefined), the GI50 is > 100 µM (inactive) with DLD-1; > 100 µM (inactive) in the assay on HOP-18; > 100 µM (inactive) with DMS-273; > 100 µM (inactive) with M19-MEL; 62.2 µM (inactive) with XF498; > 100 µM (inactive) in the assay on DMS-114.

As for `CCOP12(OCC)NC(=O)OC1(C(F)(F)F)c1ccccc1O2` (centres undefined), the GI50 in the assay with DLD-1, in the assay with SNB-78, with LXFL 529, in the assay on HOP-18, in the assay with DMS-273 and with M19-MEL was > 100 µM (inactive) throughout. Moreover, the GI50 with DMS-114 was > 100 µM (inactive).

In the case of `CN(CCO)c1nc(N)cc(=O)[nH]1`, the GI50 in the assay with DLD-1, in the assay on SNB-78, in the assay on LXFL 529, with HOP-18, in the assay on DMS-273 and with M19-MEL was > 100 µM (inactive) in each case. Also, the GI50 in the assay on XF498 and in the assay on DMS-114 was > 100 µM (inactive) each time.

Consider `O=c1ncccn1C1C=C(CO)C(O)C1O` (centres undefined), for which the GI50 with DLD-1, with SNB-78, in the assay with LXFL 529, with HOP-18, in the assay with DMS-273 and in the assay on XF498 was > 50 µM (inactive) throughout. Also, the GI50 in the assay on DMS-114 is > 50 µM (inactive).

`O=C1Cc2ccccc2CCc2ccccc21`: the GI50 with DLD-1, in the assay on SNB-78, in the assay on LXFL 529, in the assay with HOP-18, with DMS-273 and in the assay on M19-MEL was > 100 µM (inactive) throughout. In addition, the GI50 in the assay with DMS-114 is 47 µM (inactive).

For the molecule `CCOC(=O)C1=C(O)C(=O)c2c(OC)ccc(OC)c2C1=O`, the GI50 in the assay with DLD-1 is > 100 µM (inactive); with SNB-78 it was > 100 µM (inactive); in the assay with HOP-18 it was 32.5 µM (inactive); in the assay with DMS-273 it was > 100 µM (inactive); in the assay on M19-MEL it was > 100 µM (inactive); in the assay with XF498, > 100 µM (inactive). For the same molecule, the GI50 with DMS-114 was > 100 µM (inactive).

As for `NNC(=O)CCC(=O)Nc1cc(Cl)c(Cl)cc1Cl`, the GI50 in the assay with DLD-1, in the assay with SNB-78, in the assay on LXFL 529, in the assay on DMS-273, with RXF 631 and in the assay with M19-MEL was > 100 µM (inactive) in each case. The GI50 with XF498 and with DMS-114 was > 100 µM (inactive) throughout.

Take `O=C(c1nc2ccccc2nc1O)C(O)c1ccccc1` (centres undefined): the GI50 is > 100 µM (inactive) with DLD-1; > 100 µM (inactive) in the assay on SNB-78; 50.2 µM (inactive) in the assay with LXFL 529; 60.3 µM (inactive) in the assay with DMS-273; 90.8 µM (inactive) in the assay with M19-MEL; 48.6 µM (inactive) with DMS-114.

For the molecule `Oc1ccc(-c2c3ccccc3c(-c3ccc(O)cc3)c3ccccc23)cc1`, the GI50 in the assay with DLD-1 is > 100 µM (inactive); with SNB-78 it was > 100 µM (inactive); in the assay with LXFL 529, 91.6 µM (inactive); in the assay with HOP-18, > 100 µM (inactive); with DMS-273, > 100 µM (inactive); with M19-MEL, > 100 µM (inactive). Moreover, the GI50 in the assay with XF498 and in the assay on DMS-114 was > 100 µM (inactive) each time.

`Cc1ccc(NC(=O)CC2C(=O)Nc3ccccc3S2(=O)=O)c(C)c1` (centres undefined): the GI50 with DLD-1 was 14.6 µM (inactive); in the assay with SNB-78, 18.1 µM (inactive); in the assay with LXFL 529, 16.7 µM (inactive); with DMS-273, 10.7 µM (inactive); with XF498 it was 14.8 µM (inactive); in the assay with DMS-114 it was 15 µM (inactive).

Turning to `C#CCSc1nc(N)c2ncn(C3OC(CO)C(O)C3O)c2n1` (centres undefined), the GI50 in the assay on DLD-1, in the assay on SNB-78, in the assay with LXFL 529, with DMS-273, in the assay on M19-MEL and with XF498 was > 100 µM (inactive) throughout. In the assay with DMS-114, the GI50 was > 100 µM (inactive).

Turning to `CC1=NN(c2ccccc2)C(=O)/C1=C\c1ccc([N+](=O)[O-])cc1`, the GI50 in the assay with DLD-1 is 36 µM (inactive); with SNB-78 it was 28.4 µM (inactive); with LXFL 529, 32.1 µM (inactive); in the assay on HOP-18, < 0.01 µM (active); with DMS-273, 25 µM (inactive); with RXF 631, 29.5 µM (inactive). Moreover, the GI50 was 16.6 µM (inactive) with XF498 and 20.8 µM (inactive) in the assay on DMS-114.

For `CCOC(=O)NC(=O)c1cn(-c2ccc(CCOC(=O)CCCCCCCCC(=O)OCCc3ccc(-n4cc(C(=O)NC(=O)OCC)c(=O)[nH]c4=O)cc3)cc2)c(=O)[nH]c1=O`, the GI50 in the assay with DLD-1, in the assay on SNB-78, in the assay with LXFL 529, in the assay with HOP-18, with RXF 631 and with M19-MEL was > 100 µM (inactive) each time. The GI50 with XF498 and in the assay on DMS-114 was > 100 µM (inactive) in each case.

Regarding `CCOC(=O)CSc1nnc(C(Sc2nc(-c3ccccc3)c(-c3ccccc3)[nH]2)C(C)C)n1-c1ccccc1` (centres undefined), the GI50 with DLD-1, in the assay with SNB-78, in the assay with LXFL 529, with DMS-273, in the assay on M19-MEL and in the assay with DMS-114 was > 10 µM (inactive) each time.

Regarding `COc1c(CC(C)=O)c2ccccc2n1C(C)=O`, the GI50 in the assay with DLD-1, with SNB-78, in the assay on LXFL 529, with HOP-18, with DMS-273 and in the assay with RXF 631 was > 100 µM (inactive) in each case. Moreover, the GI50 in the assay with M19-MEL and in the assay with XF498 was > 100 µM (inactive) throughout.

`CC(C)CN1CC(C)C(=O)NC1=O` (centres undefined): the GI50 in the assay with DLD-1, in the assay on SNB-78, with LXFL 529, in the assay with DMS-273, in the assay with M19-MEL and with XF498 was > 100 µM (inactive) each time. Besides, in the assay on DMS-114, the GI50 was > 100 µM (inactive).

On to `NC(=O)CCC(NC(=O)Cc1ccccc1)C(=O)O` (centres undefined), for which the GI50 with DLD-1, in the assay on LXFL 529, in the assay with DMS-273, in the assay with M19-MEL and with DMS-114 was > 2470 µM (inactive) throughout.

For the molecule `COC1C2c3ccccc3C(C#N)(Cc3ccc4c(c32)OCO4)N1C(=O)c1ccccc1` (centres undefined), the GI50 in the assay on DLD-1 is 60.3 µM (inactive); with SNB-78, 47.8 µM (inactive); in the assay on LXFL 529, 46 µM (inactive); with HOP-18 it was 80.7 µM (inactive); in the assay on DMS-273, 5.65 µM (inactive); with RXF 631, > 100 µM (inactive). For the same molecule, the GI50 in the assay with XF498 was 21.3 µM (inactive); with DMS-114 it was 19.6 µM (inactive).

Turning to `O=C(CSc1nnc(Cc2ccccc2)o1)Nc1ccccc1`, the GI50 in the assay with DLD-1, in the assay on SNB-78, in the assay with LXFL 529, in the assay with HOP-18, in the assay with DMS-273 and with M19-MEL was > 100 µM (inactive) throughout. Further, in the assay on DMS-114, the GI50 was > 100 µM (inactive).

As for `O=C1Oc2cc3c(c4cccc1c24)OCN(c1ccccc1)C3`, the GI50 was > 100 µM (inactive) in the assay with DLD-1; 38.6 µM (inactive) in the assay on LXFL 529; > 100 µM (inactive) in the assay with DMS-273; 38.8 µM (inactive) in the assay with M19-MEL; > 100 µM (inactive) in the assay with XF498; 38.1 µM (inactive) in the assay on DMS-114.
